From patent US20210315869A1, “COMPOUNDS AND METHODS FOR CSK MODULATION AND INDICATIONS THEREFOR” (Plexxikon Inc., priority 2020, published 2021)

How the values were obtained:
CSK = molecular target: T1, CSK (Homo sapiens, UniProt P41240); test: Human CSK enzymatic assay (AlphaScreen, Poly (Glu4-Tyr) substrate); assay type: biochemical; conditions: 100 uM ATP; read-out: CSK IC50 (μM) COFACTOR: 100 uM ATP
T1 construct: purchased Thermo Fisher
Procedure: This assay measures the ability of CSK to phosphorylate a biotinylated peptide containing multiple tyrosine residues in vitro. The CSK enzyme was purchased from Thermo Fisher. The biotinylated Poly (Glu4-Tyr) peptide substrate was purchased from Sigma-Aldrich. The CSK enzyme assay was performed using 0.75 ng CSK enzyme and 30 nM Poly (Glu4-Tyr) substrate in the presence of 25 mM Hepes pH 7.5, 5 mM Mg Acetate, 0.1% NP-40, 1 mM DTT, 0.01% BSA, and 100 μM ATP. A 19 μL volume of the above reaction mixture was added to wells of 384-well AlphaPlate (PerkinElmer GA, USA) containing 1 μL of various concentrations of test compound or DMSO vehicle and incubated for 60 minutes at room temperature. 16 wells containing all the components of reaction mixture and 5% DMSO serve as high control. 16 wells containing all the components except ATP of reaction mixture and 5% DMSO served as low control. The enzymatic reaction was stopped by the addition of 5 μL stop/detection mixture containing 25 mM Hepes pH 7.5 100 mM EDTA, and 5 μg/mL streptavidin-coated AlphaScreen donor beads (PerkinElmer GA, USA) and incubated for 20 minutes. A 5 μL mixture containing 25 mM Hepes pH 7.5, 100 mM EDTA, and 5 μg/mL anti-phosphotyrosine antibody PY20-coated AlphaScreen acceptor beads (PerkinElmer GA, USA) was added and the plate was incubated for 1 hour at room temperature. The streptavidin donor beads bind to the biotin moiety on the biotinylated Poly (Glu4-Tyr) substrate and the PY20 antibody-coated acceptor beads bind to tyrosine residues on the substrate that have been directly phosphorylated by CSK. Upon excitation of these beads with laser light at 680 nm, singlet oxygen was produced. This singlet oxygen was rapidly quenched, unless the AlphaScreen PY20 acceptor beads are in close proximity, in which case a proximity signal can be measured at 580 nm. In the presence of catalytic activity, there was a very strong proximity signal. Selective CSK inhibitors affect a decrease in this proximity signal through a decrease in phosphorylation of the Poly (Glu4-Tyr) substrate. The percentage of inhibition at individual concentrations relative to high and low controls was calculated. The data were analyzed by using nonlinear regression to generate IC50 values. Human LCK enzymatic assay

LCK = molecular target: T2, LCK (Homo sapiens, UniProt P06239); test: Human LCK enzymatic assay (AlphaScreen, Poly (Glu4-Tyr) substrate); assay type: biochemical; conditions: 100 uM ATP; read-out: LCK IC50 (uM) COFACTOR: 100 uM ATP
T2 construct: purchased ProQinase
Procedure: This assay measures the ability of LCK to phosphorylate a biotinylated peptide containing multiple tyrosine residues in vitro. The LCK enzyme was purchased from ProQinase. The biotinylated Poly (Glu4-Tyr) peptide substrate was purchased from Sigma-Aldrich. The LCK enzyme assay was performed using 1 ng LCK enzyme and 30 nM Poly (Glu4-Tyr) substrate in the presence of 25 mM Hepes pH 7.5, 10 mM MnCl2, 50 mM NaCl, 0.01% Tween-20, 0.5 mM DTT, 0.01% BSA, and 100 μM ATP. A 19 μL volume of the above reaction mixture was added to wells of 384-well AlphaPlate (PerkinElmer GA, USA) containing 1 μL of various concentrations of test compound or DMSO vehicle and incubated for 40 minutes at 25° C. 16 wells containing all the components of reaction mixture and 5% DMSO served as high control. 16 wells containing all the components except ATP of reaction mixture and 5% DMSO served as low control. The enzymatic reaction was stopped by the addition of 5 μL stop/detection mixture containing 25 mM Hepes pH 7.5 100 mM EDTA, and 10 μg/mL streptavidin-coated AlphaScreen donor beads (PerkinElmer GA, USA) and incubated for 20 minutes. A 5 μL mixture containing 25 mM Hepes pH 7.5, 100 mM EDTA, and 10 μg/mL anti-phosphotyrosine antibody PY20-coated AlphaScreen acceptor beads (PerkinElmer GA, USA) was added and the plate was incubated for 1 hour at room temperature. The streptavidin donor beads bind to the biotin moiety on the biotinylated Poly (Glu4-Tyr) substrate and the PY20 antibody-coated acceptor beads bind to tyrosine residues on the substrate that have been directly phosphorylated by LCK. Upon excitation of these beads with laser light at 680 nm, singlet oxygen was produced. This singlet oxygen was rapidly quenched, unless the AlphaScreen PY20 acceptor beads are in close proximity, in which case a proximity signal can be measured at 580 nm. In the presence of catalytic activity, there was a very strong proximity signal. Selective LCK inhibitors affect a decrease in this proximity signal through a decrease in phosphorylation of the Poly (Glu4-Tyr) substrate. The percentage of inhibition at individual concentrations relative to high and low controls was calculated. The data were analyzed by using nonlinear regression to generate IC50 values.

Jurkat/NFAT-RE cells = test: NFAT reporter assay (luciferase) in Jurkat/NFAT-RE cells; assay type: cell-based; conditions: Homo sapiens, 0.02 μg/mL anti-CD3 antibody OKT3, 3 hours, read-out: Jurkat EC50 (uM) Cell Assay: Reporter Cell Variant: NFAT response element
Source text: To assess the ability of CSK inhibitors to activate LCK and stimulate signaling downstream of the T-cell receptor, an NFAT reporter assay was used for monitoring of LCK activation in cells through the activation of LCK-dependent signaling through a reporter assay. The Jurkat T-cell cell line was genetically engineered to express a luciferase reporter that is regulated by the NFAT-response element. (Clipstone, N. A., & Crabtree, G. R., Identification of calcineurin as a key signalling enzyme in T-lymphocyte activation, Nature, 357(6380), 695-697, 1992). Stimulation of the T-cell receptor with anti-CD3 antibody increases the expression of the luciferase reporter. To test the ability of CSK inhibitors to stimulate LCK and downstream T-cell signaling, the cells were stimulated with a suboptimal concentration of anti-CD3 ligand, to measure the ability of CSK inhibitors to increase luciferase expression.
This assay measures the signaling activity downstream of the T-cell receptor, specifically the ability of the NFAT transcription factor to be translocated to the nucleus and induce expression of a firefly luciferase gene. Jurkat/NFAT-RE cells stably expressing the NFAT reporter construct were purchased from BPS Bioscience. The assay was performed by plating 40,000 Jurkat/NFAT-RE cells in a 50 μL volume of serum-free growth media in a 96-well plate. Following an overnight incubation, the cells were treated with CSK inhibitors and 0.02 μg/mL anti-CD3 antibody OKT3 (BD Bioscience) for 3 hours at 37° C. High control wells were stimulated with DMSO and 5 μg/mL OKT3 to maximally stimulate the NFAT reporter, and low control wells were stimulated with DMSO and 0.02 μg/mL OKT3. Following the 3 hour incubation, the cells were assayed for viability using CellTiter-Fluor™ (Promega), and for luciferase expression using ONE-Glo™ (Promega). The ONE-Glo™ signal was normalized to the CellTiter-Fluor™ signal, and the percentage of NFAT activation relative to high and low controls was calculated. The data were analyzed by using nonlinear regression to generate EC50 values. Selective CSK inhibitors affect an increase in luciferase expression in the presence of low level stimulation of the T-cell receptor.

T2 sequence (P06239 whole entry): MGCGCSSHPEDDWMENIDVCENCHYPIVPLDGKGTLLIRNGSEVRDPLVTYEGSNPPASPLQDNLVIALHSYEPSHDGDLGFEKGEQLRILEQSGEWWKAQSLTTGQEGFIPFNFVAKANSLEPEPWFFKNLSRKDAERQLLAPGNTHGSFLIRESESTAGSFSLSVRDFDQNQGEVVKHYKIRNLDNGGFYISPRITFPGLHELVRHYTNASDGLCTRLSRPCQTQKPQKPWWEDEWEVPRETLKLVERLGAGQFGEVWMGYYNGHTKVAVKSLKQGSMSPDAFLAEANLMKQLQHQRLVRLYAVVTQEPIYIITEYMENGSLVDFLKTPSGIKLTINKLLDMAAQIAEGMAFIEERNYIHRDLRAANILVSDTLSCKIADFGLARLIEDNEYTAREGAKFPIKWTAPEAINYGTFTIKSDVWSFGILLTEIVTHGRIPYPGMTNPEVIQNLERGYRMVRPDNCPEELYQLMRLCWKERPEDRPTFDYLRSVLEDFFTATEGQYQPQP
T1 sequence (P41240 whole entry): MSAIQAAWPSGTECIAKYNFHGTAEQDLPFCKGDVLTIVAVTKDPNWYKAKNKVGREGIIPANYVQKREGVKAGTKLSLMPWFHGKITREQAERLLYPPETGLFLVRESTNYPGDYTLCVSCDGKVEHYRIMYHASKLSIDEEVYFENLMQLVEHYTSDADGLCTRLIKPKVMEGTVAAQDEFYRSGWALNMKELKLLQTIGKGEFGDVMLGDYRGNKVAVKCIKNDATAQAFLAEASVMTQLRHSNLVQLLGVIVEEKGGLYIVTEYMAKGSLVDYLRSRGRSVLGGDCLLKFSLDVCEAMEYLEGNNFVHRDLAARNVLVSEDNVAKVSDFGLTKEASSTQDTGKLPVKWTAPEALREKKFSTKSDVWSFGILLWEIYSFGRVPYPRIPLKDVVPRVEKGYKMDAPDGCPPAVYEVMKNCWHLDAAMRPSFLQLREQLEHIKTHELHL

Row | Structure (SMILES) | IC50 (CSK) | IC50 (LCK) | EC50 (Jurkat/NFAT-RE cells)
1 | O=c1c(-c2c(F)ccc(NS(=O)(=O)c3cc4scnc4cc3F)c2F)cc2cnccc2n1CC1CC1 [P-0025, N-(3-(1-(cyclopropylmethyl)-2-oxo-1,2-dihydro-1,6-naphthyridin-3-yl)-2,4-difluorophenyl)-5-fluorobenzo[d]thiazole-6-sulfonamide] | 0.5 to 5 µM | 5 to 100 µM | 5 to 100 µM
2 | Nc1cc2c(cn1)cc(-c1c(F)ccc(NS(=O)(=O)c3ccc4ncsc4c3)c1F)c(=O)n2C1CC1 [P-0026, N-(3-(7-amino-1-cyclopropyl-2-oxo-1,2-dihydro-1,6-naphthyridin-3-yl)-2,4-difluorophenyl)benzo[d]thiazole-6-sulfonamide] | 0.001 to 0.5 µM | 5 to 100 µM | 0.5 to 5 µM
